Results on 31 compounds are retold here after patent publication US20130303507A1 (Novartis AG, priority 2011, published 2013).

Where “and” joins values, the source holds several entries; their conditions need not be identical. Equal entries are not always repeated.

In the first assay the test system is neointima formation.
Assay: not given
As to conditions: in rats; cited from earlier work.
As for `COc1ccc(CNc2nc(N(CCO)CCO)nc3c2ncn3C(C)C)cc1` [CVT-313], the “inhibition of neointima formation” value is “greater than 80%”.

The target in another assay is Cdk9/cyclinT1 (Homo sapiens, UniProt P50750). Briefly: Cdk9/cyclinT1 Alpha Screen protocol. Type of assay: biochemical. Also noted: Full length wild type Cdk9/cyclin T1 is purchased from Invitrogen; purchased Invitrogen PV4131. As to conditions: TFA salt; individual determinations; read-out: CDK9_cyclinT1_AS2_IC50. On the procedure: Cdk9/cyclinT1 Alpha Screen Protocol
Sequence of Cdk9/cyclinT1 (P50750 whole entry): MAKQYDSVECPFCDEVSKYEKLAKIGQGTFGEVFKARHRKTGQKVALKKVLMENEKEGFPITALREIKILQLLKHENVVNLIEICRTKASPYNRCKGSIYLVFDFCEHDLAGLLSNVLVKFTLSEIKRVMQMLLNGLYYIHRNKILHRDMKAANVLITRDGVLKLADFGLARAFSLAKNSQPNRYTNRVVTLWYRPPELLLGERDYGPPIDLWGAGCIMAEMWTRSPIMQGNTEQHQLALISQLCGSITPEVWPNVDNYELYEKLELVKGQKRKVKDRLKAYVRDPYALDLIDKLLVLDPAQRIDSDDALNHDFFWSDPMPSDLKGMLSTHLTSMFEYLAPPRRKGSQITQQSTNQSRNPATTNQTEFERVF
Sequence of Cdk9/cyclinT1 (O60563 whole entry partner): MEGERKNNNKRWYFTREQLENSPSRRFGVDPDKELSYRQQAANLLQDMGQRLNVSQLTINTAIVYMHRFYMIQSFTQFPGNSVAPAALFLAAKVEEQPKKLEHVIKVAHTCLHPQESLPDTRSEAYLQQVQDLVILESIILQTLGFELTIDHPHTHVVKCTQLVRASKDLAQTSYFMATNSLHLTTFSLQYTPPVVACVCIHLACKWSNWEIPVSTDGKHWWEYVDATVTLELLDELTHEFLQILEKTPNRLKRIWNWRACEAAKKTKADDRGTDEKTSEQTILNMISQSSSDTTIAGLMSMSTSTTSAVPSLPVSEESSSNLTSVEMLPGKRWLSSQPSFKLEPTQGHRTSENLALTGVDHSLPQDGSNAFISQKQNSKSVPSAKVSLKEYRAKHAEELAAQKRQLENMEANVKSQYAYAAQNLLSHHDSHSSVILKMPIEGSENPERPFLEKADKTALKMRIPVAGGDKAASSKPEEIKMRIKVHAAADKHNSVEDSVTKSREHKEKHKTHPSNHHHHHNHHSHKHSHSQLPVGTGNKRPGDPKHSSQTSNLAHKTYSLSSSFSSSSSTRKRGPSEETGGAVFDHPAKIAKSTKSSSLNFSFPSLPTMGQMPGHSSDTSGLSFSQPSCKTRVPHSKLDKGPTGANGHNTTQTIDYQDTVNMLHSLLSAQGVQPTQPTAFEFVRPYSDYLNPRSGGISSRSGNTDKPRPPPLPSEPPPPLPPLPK
Full length wild type Cdk9/cyclin T1 is purchased from Invitrogen, cat#PV4131. […] The cdk7tide peptide substrate, biotin-[…] -OH, is a custom synthesis purchased from the Tufts University Core Facility. The final concentration of cdk7tide peptide substrate is 200 nM. […] Phospho-Rpb1 CTD (ser2/5) substrate antibody is purchased from Cell Signaling Technology. The final concentration of antibody is 0.67 ug/ml. The Alpha Screen Protein A detection kit containing donor and acceptor beads is purchased from PerkinElmer Life Sciences. The final concentration of both donor and acceptor beads is 15 ug/ml. Alpha Screen is used for detection. […] The biotinylated-cdk7tide peptide substrate is bound to the streptavidin coated donor bead. The antibody is bound to the protein A coated acceptor bead. The antibody will bind to the phosphorylated form of the biotinylated-cdk7tide peptide substrate, bringing the donor and acceptor beads into close proximity. Laser irradiation of the donor bead at 680 nm generates a flow of short-lived singlet oxygen molecules. When the donor and acceptor beads are in close proximity, the reactive oxygen generated by the irradiation of the donor beads initiates a luminescence/fluorescence cascade in the acceptor beads. This process leads to a highly amplified signal with output in the 530-620 nm range. Assays are carried out in 50 mM Hepes, pH=7.5, 10 mM MgCl2, 0.1% Bovine Serum Albumin, 0.01% Tween-20, 1 mM Dithiothreitol, 2.5% Dimethyl Sulfoxide. Stop and detection steps are combined using 50 mM Hepes, pH=7.5, 18 mM EDTA, 0.1% Bovine Serum Albumin, 0.01% Tween-20.
With `N#CC1(CNc2cccc(-c3cc(N[C@H]4CC[C@H](O)CC4)ncc3F)n2)CCOCC1` [Compound 576], the IC50 came to 0.137 nM.
On the same count and under the same terms, next, `C[C@@](O)(CN[C@H]1CC[C@H](Nc2cc(-c3cccc(NCC4(C#N)CCOCC4)n3)c(Cl)cn2)CC1)C(F)(F)F` [Compound 577]: 0.432 nM and 0.255 nM; `C[C@](O)(CN[C@H]1CC[C@H](Nc2cc(-c3cccc(NCC4(C#N)CCOCC4)n3)c(Cl)cn2)CC1)C(F)(F)F` [Compound 578]: 0.497 nM and 0.311 nM.
Same read-out and setting: as for `C[C@](O)(CN[C@H]1CC[C@H](Nc2cc(-c3cccc(NCC4(C#N)CCOCC4)n3)ccn2)CC1)C(F)(F)F` [Compound 579], the figure is 0.902 nM.
The same measure, in the same setting: next, `C[C@@](O)(CN[C@H]1CC[C@H](Nc2cc(-c3cccc(NCC4(C#N)CCOCC4)n3)ccn2)CC1)C(F)(F)F` [Compound 580]: 0.979 nM.

The assay is the same for the next values; noted with them: neutral species; individual determinations; read-out: CDK9_cyclinT1_AS2_IC50.
For the compound `N#CC1(CNc2cccc(-c3cc(N[C@H]4CC[C@@H](NCC5(O)CC5)CC4)ncc3Cl)n2)CCOCC1` [Compound 573], the IC50 was 6.44 nM.
On the same count and under the same terms, next, `N#CC1(COc2cncc(-c3cc(N[C@H]4CC[C@H](NC[C@H](O)C(F)(F)F)CC4)ncc3Cl)n2)CCOCC1` [Compound 574]: 0.448 nM.
The same measure, in the same setting: next, `N#CC1(COc2cncc(-c3cc(N[C@H]4CC[C@H](NC[C@@H](O)C(F)(F)F)CC4)ncc3Cl)n2)CCOCC1` [Compound 575]: 0.215 nM.
On the same count and under the same terms, next, `COC[C@@H](C)N(O)[C@H]1CC[C@H](Nc2cc(-c3cncc(OCC4(C#N)CCOCC4)n3)c(Cl)cn2)CC1` [Compound 581]: 1 nM; `C[C@@](O)(CN[C@H]1CC[C@H](Nc2cc(-c3cncc(OCC4(C#N)CCOCC4)n3)c(Cl)cn2)CC1)C(F)(F)F` [Compound 582]: 1 nM; `N#CC1(COc2cncc(-c3cc(NC4CCCNCC4)ncc3Cl)n2)CCOCC1` (stereo not shown) [Compound 583]: 11 nM.
As for `C[C@H](CO)N[C@H]1CC[C@H](Nc2cc(-c3cccc(NCC4(C#N)CCOCC4)n3)c(Cl)cn2)CC1` [Compound 584], the IC50 was less than 1 nM.
Still for that read-out and setting: as for `C[C@@H](O)CN[C@H]1CC[C@H](Nc2cc(-c3cccc(NCC4(C#N)CCOCC4)n3)c(Cl)cn2)CC1` [Compound 585], the figure is less than 1 nM; as for `COC[C@H](C)N[C@H]1CC[C@H](Nc2cc(-c3cncc(OCC4(C#N)CCOCC4)n3)c(Cl)cn2)CC1` [Compound 586], 1 nM; as for `COC[C@H](C)N[C@H]1CC[C@H](Nc2cc(-c3cccc(NCC4(C#N)CC4)n3)c(F)cn2)CC1` [Compound 587], 1 nM.
The same measure, in the same setting: next, `N#CC1(CNc2cccc(-c3cc(N[C@H]4CC[C@H](N[C@H]5CCCC[C@@H]5O)CC4)ncc3Cl)n2)CCOCC1` [Compound 588]: less than 1 nM; `COC[C@H](C)N[C@H]1CC[C@H](Nc2cc(-c3cncc(OCC4(C#N)CCOCC4)n3)c(F)cn2)CC1` [Compound 589]: 1 nM; `C[C@H](CO)N[C@H]1CC[C@H](Nc2cc(-c3cncc(OCC4(C#N)CCOCC4)n3)c(Cl)cn2)CC1` [Compound 590]: 5 nM.
On the same count and under the same terms, as for `C[C@H](CO)N[C@H]1CC[C@@H](Nc2cc(-c3cncc(OCC4(C#N)CCOCC4)n3)c(Cl)cn2)CC1` [Compound 591], the figure is less than 1 nM; as for `C[C@H](CO)N[C@H]1CC[C@H](Nc2cc(-c3cncc(OCC4(C#N)CCOCC4)n3)c(F)cn2)CC1` [Compound 592], less than 1 nM.
Consider `C[C@H](CO)N[C@H]1CC[C@@H](Nc2cc(-c3cncc(OCC4(C#N)CCOCC4)n3)c(F)cn2)CC1` [Compound 593], for which the IC50 worked out at 25 nM.
On the same count and under the same terms, as for `[2H]C(C)(COC)N[C@H]1CC[C@H](Nc2cc(-c3cccc(NCC4(C#N)CCOCC4)n3)c(Cl)cn2)CC1` (stereo partly shown) [Compound 594], the figure is less than 1 nM; as for `[2H]C([2H])([2H])OCC(C)N[C@H]1CC[C@H](Nc2cc(-c3cncc(OCC4(C#N)CCOCC4)n3)c(Cl)cn2)CC1` (stereo partly shown) [Compound 595], less than 1 nM.
Same read-out and setting: next, `[2H][C@@](C)(COC)N[C@H]1CC[C@H](Nc2cc(-c3cccc(NCC4(C#N)CCOCC4)n3)c(Cl)cn2)CC1` [Compound 596]: less than 1 nM.
Regarding `[2H][C@](C)(COC)N[C@H]1CC[C@H](Nc2cc(-c3cccc(NCC4(C#N)CCOCC4)n3)c(Cl)cn2)CC1` [Compound 597], the IC50 was less than 1 nM.
On the same count and under the same terms, as for `[2H]C([2H])([2H])OC[C@H](C)N[C@H]1CC[C@H](Nc2cc(-c3cncc(OCC4(C#N)CCOCC4)n3)c(Cl)cn2)CC1` [Compound 598], the figure is 1 nM.
Regarding `[2H]C([2H])([2H])OC[C@@H](C)N[C@H]1CC[C@H](Nc2cc(-c3cncc(OCC4(C#N)CCOCC4)n3)c(Cl)cn2)CC1` [Compound 599], the IC50 was less than 1 nM.
On the same count and under the same terms, next, `COC[C@@H](C)N[C@H]1CC[C@@H](Nc2cc(-c3cccc(NCC4(C#N)CCOCC4)n3)c(Cl)cn2)CC1` [Compound 601]: 25 nM; `COC[C@H](C)N[C@H]1CC[C@@H](Nc2cc(-c3cccc(NCC4(C#N)CCOCC4)n3)c(Cl)cn2)CC1` [Compound 602]: 8.1 nM; `COCC(C)N[C@H]1CC[C@@H](Nc2cc(-c3cccc(NCC4(C#N)CCOCC4)n3)c(Cl)cn2)CC1` (stereo partly shown) [Compound 603]: 5.6 nM.
